# Experimental data taken from patent US7368115B2, “Method of enhancing neural stem cell proliferation, differentiation, and survival using pituitary adenylate cyclase activating polypeptide (PACAP)” (Stem Cell Therapeutics Inc., priority 2002, dated 2008).
# How the values were obtained:
# [1] = tested on: E14 ganglionic eminence neural stem cells; test: Primary neurosphere number from dissociated E14 ganglionic eminences (neural stem cell survival); assay type: cell-based, mouse
# Description: FIG. 1. Pituitary adenylate cyclase-activating polypeptide (PACAP) enhanced neural stem cell survival in vitro. Embryonic day 14 ganglionic eminences (E14 GE) were dissociated and plated at 150 cells/ml in the indicated growth factor conditions. The number of neurospheres was counted after 10 days. Data are expressed relative to the number obtained with epidermal growth factor (EGF) alone (100%). PACAP increased the number of neurospheres obtained with either EGF or fibroblast growth factor (FGF)+heparan sulfate (HS). […] (* p<0.05, n=3).
# Cell Culture: Primary embryonic neural stem cells were isolated from E14 ganglionic eminence as previously described (Reynolds and Weiss, 1992). Neurospheres were grown in the presence of EGF (20 ng/ml) or FGF-2 (20 ng/ml)+heparan sulfate (2 μg/ml) growth medium. Passaged neural stem cells were grown at a clonal density (150 cells/ml).
# E14 GE were dissociated and plated at 150 cells/ml in EGF, EGF+PACAP, FGF+HS, or FGF+HS+PACAP. The number of neurospheres were counted after 10 days.
# [2] = tested on: primary E14 neurospheres; test: Secondary neurosphere number from dissociated primary neurospheres (self-renewal); assay type: cell-based, mouse; conditions: primary neurospheres grown with PACAP, replated in EGF or FGF+HS; normalized to growth without PACAP
# Protocol: FIG. 2. PACAP increased neural stem cell self-renewal in vitro. Primary E14 neurospheres were grown in the indicated conditions, dissociated, and replated in the presence of either EGF or FGF+HS. Neurospheres were counted and data were normalized to either EGF or FGF+HS alone. PACAP increased the number of secondary neurospheres obtained with either EGF or FGF+HS. (* p<0.05, n=3).
# Single Cell Dissociation Assay: Single neurospheres ([…]) were dissociated mechanically and then plated in a 96 well plate and incubated for 10 days in vitro in the presence of growth factors.
# Primary E14 neurospheres were grown in the indicated conditions in FIG. 2, then dissociated and replated in the presence of either EGF or FGF+HS and the number of secondary neurospheres was counted. Data were normalized to the numbers of secondary neurospheres generated from primary neurospheres grown in the absence of PACAP.
# [3] = tested on: primary E14 neurospheres; test: In vitro neurogenesis: count of β-tubulin immunopositive neurons from neurospheres; assay type: cell-based, mouse
# Protocol: FIG. 3. PACAP enhanced in vitro neurogenesis by neural stem cells. Primary E14 neurospheres were grown in the indicated conditions for seven days and then processed for immunocytochemistry to count the number of B-tubulin immunopositive neurons. Data were normalized to either EGF or FGF+HS alone (100%). PACAP increased the number of neurons in all conditions. (* p<0.01, n=3).
# Differentiation of Neurospheres: Neurospheres were plated onto poly-L-ornithine coated coverslips in serum-free medium and subjected to immunocytochemistry after 5 days in vitro. The number of β-III tubulin-positive cells were counted.
# Primary E14 neurospheres were grown in either EGF or FGF media in the presence or absence of PACAP for seven days, differentiated for five days in vitro in basal media, and then processed for immunocytochemistry to determine the number of β-tubulin immunopositive neurons. Data were normalized to those obtained with either EGF or FGF+HS alone (100%).
# [4] = tested on: Akt; test: Akt phosphorylation in cultured neural stem cells (Western blot); assay type: cell-based; conditions: within 1 to 2 hours, data not shown
# Protocol: (§1) To examine the possible mechanisms of PACAP action on neural stem cells, the effects of PACAP on Akt and STAT5 phosphorylation were investigated. Immunoblots were performed with anti-STAT5 (1:1000, Santa Cruz Biotechnology), anti-phospho-STAT5 (1:1000; Cell Signaling Technology), anti-Akt and anti-phospho-Akt (1:1000; Cell Signaling Technology). […] PACAP also stimulated STAT5 phosphorylation, which was previously shown to be important in neural stem cell neurogenesis. The effects of PACAP on Akt and STAT5 phosphorylation may be critical in mediating actions on neural stem cell survival and neurogenesis.
# [5] = tested on: STAT5; test: STAT5 phosphorylation in cultured neural stem cells (Western blot); assay type: cell-based; conditions: data not shown
# Protocol: as §1
# [6] = tested on: adult forebrain subventricular zone (SVZ); test: In vivo proliferation in the adult subventricular zone (BrdU+ cells) after infusion into the lateral ventricle; parameters: species or system CD-1 mice; conditions: human PACAP 165 μg/ml by osmotic minipump into right lateral ventricle for 6 days; relative to vehicle infused animals
# Description: FIG. 4. PACAP infusion stimulated increased proliferation in the adult subventricular zone (SVZ) in vivo. PACAP was infused into the lateral ventricles for six days with an osmotic minipump, followed by a series of BrdU injections. Brains were processed for immunocytochemistry. PACAP increased proliferation in the adult SVZ. (** p<0.05, n=4). […] To examine the actions of the peptide in vivo, CD-1 mice (6–7 weeks of age) were implanted with osmotic minipumps (Alzet 1007D) filled with either human PACAP (American Peptide Company, 165 μg/ml) or vehicle alone (0.9% saline containing 1 mg/ml mouse serum albumin). The cannulae were placed in the right lateral ventricle. Each animal was infused for 6 days and injected with BrdU every two hours for ten hours and killed 0.5 hours after the last injection. Brains were processed for immunohistochemistry as described previously (Shingo et al., 2001) and BrdU+cells were counted in serial sections of the SVZ.
# [7] = Banks, 1993; cited from earlier work
# [8] = tested on: embryonic rat cortical precursors; conditions: Lu and DiCicco-Bloom, 1997; cited from earlier work
substance,measurement,setting,value
PACAP: polypeptide hormone that activates adenylate cyclase; native mammalian form is 38 or 27 amino acids; human PACAP from American Peptide Company used in vivo,number of primary neurospheres generated in response to EGF,"[1]; EGF+PACAP vs EGF, 150 cells/ml, counted after 10 days, lesser extent than with FGF-2",also increased
same,number of primary neurospheres generated in response to FGF-2,"[1]; FGF+HS+PACAP vs FGF+HS, 150 cells/ml, counted after 10 days, PACAP added at beginning of culture",significantly increased
same,neurosphere number with delayed addition of PACAP,[1]; PACAP addition delayed until 5 days in vitro,did not increase
same,number of secondary neurospheres generated by single primary neurospheres,[2],significantly increased
same,number of β-tubulin immunopositive neurons generated,"[3]; EGF or FGF media with PACAP for seven days, differentiated five days in vitro, normalized to EGF or FGF+HS alone (100%)",significantly increased
same,number of neurons generated with delayed PACAP addition,[3]; PACAP addition delayed until after five days in vitro (PACAP at 5 DIV),an increase was observed
same,phosphorylation of Akt,[4],rapid increase
same,STAT5 phosphorylation,[5],stimulated
same,number of BrdU incorporating cells in the SVZ,[6],significantly increased
same,crossing of the blood-brain-barrier,[7],known to cross the blood-brain-barrier
same,mitosis,[8],can decrease mitosis
